Where a name gives a salt, the structure may show the parent alone.

One assay addresses activated human C1 (Homo sapiens, UniProt P09871). The assay can be described thus: Test Code 026 (C1 inhibitor): ability of activated human C1 to destroy fluid phase human C2 in the presence of C4. It counts as biochemical. Conditions: two-fold serial dilution assay, higher well number indicates higher activity. The source says:
(§1) An active inhibitor protects C2 from C1 and C4; (ii) Test Code 035 (C3-C9 inhibitor)--This test determines the ability of the late components of human complement (C3-C9) to lyse EAC 142 in the presence of appropriate dilutions of the test compound. An active inhibitor protects EAC 142 from lysis by human C3-C9; (iii) Test Code 036 (C-Shunt inhibitor)--In this test human erythrocytes rendered fragile are lysed in autologous serum via the shunt pathway activated by cobra venom factor in the presence of appropriate dilutions of the test compound. Inhibition of the shunt pathway results in failure of lysis; (iv) Forssman Vasculitis Test--Here, the well known complement dependent lesion, Forssman vasculitis, is produced in guinea pigs by intradermal injection of rabbit anti-Forssman antiserum. The lesion is measured in terms of diameter, edema and hemorrhage and the extent to which a combined index of these is inhibited by prior intraperitoneal injection of the test compound at 200 mg/kg is then reported, unless otherwise stated; (v) Forssman Shock Test--Lethal shock is produced in guinea pigs by an i.v. injection of anti-Forssman antiserum and the harmonic mean death time of treated guinea pigs is compared with that of simultaneous controls; (vi) Complement Level Reduction Test--In this test, the above dosed guinea pigs, or others, are bled for serum and the complement level is determined in undiluted serum by the capillary tube method of U.S. Pat. No. 3,876,376 and compared to undosed control guinea pigs; and (vii) Cap 50 Test--Here, appropriate amounts of the test compound are added to a pool of guinea pig serum in vitro, after which the undiluted serum capillary tube assay referred to above is run. The concentration of compound inhibiting 50% is reported.
(§2) **Activity in wells a serial dilution assay. Higher well number indicates
(§3) higher activity. The serial dilutions are two-fold.

The subject of assay [1] is late components of human complement (C3-C9). In words: Test Code 035 (C3-C9 inhibitor, C-Late): lysis of EAC 142 by late components of human complement. Format: cell-based. The settings on record: two-fold serial dilution assay.
Excerpt: as §1, §2, §3

Another assay deals with shunt pathway. In words: Test Code 036 (C-Shunt inhibitor): lysis of fragile human erythrocytes in autologous serum via shunt pathway activated by cobra venom factor. Conditions: Table II (intermediates); two-fold serial dilution assay. It counts as cell-based.
Excerpt: as §1, §2, §3

The test system of the next assay is complement system. Conditions: reported in literature or known; cited from earlier work.
For assay [2] the following is noted: reported in literature; cited from earlier work.
In assay [3] the test system is total hemolytic complement activity of human serum. The settings on record: in vitro and in vivo, reported in literature; cited from earlier work.
Another assay has as its system whole complement. In words: Complement Level Reduction Test: whole complement in serum of dosed guinea pigs, capillary tube assay. It counts as in vivo. Conditions: guinea pig, intraperitoneal, 200 mg/kg.
Where [4] appears, read: Table I, higher well number indicates higher activity.

Regarding `Cc1ccc(C(=O)Nc2cc(C(=O)O)cc(C(=O)Nc3ccc(S(=O)(=O)O)c4cc(S(=O)(=O)O)cc(S(=O)(=O)O)c34)c2)cc1N` [5-(3-Amino-p-toluamido)-N-(4,6,8-trisulfo-1-naphthyl)isophthalamic acid, trisodium salt], the “Cl 026 (C1 inhibitor)” value on activated human C1 (Table II (intermediates)) is “+3 Wells”. For the same molecule, the “C-Late 035 (C3-C9 inhibitor)” value in assay [1] (Table II (intermediates)) is recorded as “N”. Also, in the assay on shunt pathway, the “Shunt Inhibition 036” value is “N”.
For `Nc1ccc2cc(S(=O)(=O)[O-])cc(O)c2c1N=Nc1ccc(NC(=O)Nc2ccc(N=Nc3c(N)ccc4cc(S(=O)(=O)[O-])cc(O)c34)c(S(=O)(=O)[O-])c2)cc1S(=O)(=O)[O-].[Na+].[Na+].[Na+].[Na+]` [chlorazol fast pink, 3,3'-ureylenebis[6-(2-amino-8-hydroxy-6-sulfo-1-naphthylazo)benzenesulfonic acid], tetrasodium salt], in the assay on complement system, the “complement inhibitor / anticomplementary effect” value is “anticomplementary effect”.
As to `NC[C@H]1CC[C@H](C(=O)O)CC1` [tranexamic acid], the “use in treatment of hereditary angioneurotic edema” value in assay [2] is given as “used with success in the treatment of hereditary angioneurotic edema”.
`Cc1ccc(NC(=O)c2ccc(NC(=O)Nc3ccc(C(=O)Nc4ccc(C)c(S(=O)(=O)Nc5cc(S(=O)(=O)O)cc6cc(S(=O)(=O)O)cc(S(=O)(=O)O)c56)c4)c(S(=O)(=O)O)c3)cc2S(=O)(=O)O)cc1S(=O)(=O)Nc1cc(S(=O)(=O)O)cc2cc(S(=O)(=O)O)cc(S(=O)(=O)O)c12` [8,8'-[Ureylenebis[[(2-sulfo-4,1-phenylenecarbonyl)imino](2-methyl-4,1-phenylene)sulfonyl]imino]]di-1,3,6-naphthalenetrisulfonic acid, octasodium salt]: the “Cl 026 (C1 inhibitor)” value on activated human C1 (Table I) is given as “+4 Wells”. The “C-Late 035 (C3-C9 inhibitor)” value in assay [1] (setting [4]) is on record as “+2 Wells”.
As to `Cc1ccc(C(=O)Nc2ccc(S(=O)(=O)O)c3cc(S(=O)(=O)O)cc(S(=O)(=O)O)c23)cc1NC(=O)c1cc(N)cc(C(=O)O)c1` [5-Amino-2'-methyl-5'-[(4,6,8-trisulto-1-naphthyl)carbamoyl]isophthalanilic acid, trisodium salt], the “Cl 026 (C1 inhibitor)” value at activated human C1 (Table II (intermediates)) is given as “+2 Wells”. In assay [1] (Table II (intermediates)), the “C-Late 035 (C3-C9 inhibitor)” value was “N”. Besides, the “Shunt Inhibition 036” value in the assay with shunt pathway is “N”.
As to pentosan-polysulfoester, in assay [3], the “anticomplementary activity of human serum (reduction in total hemolytic complement activity)” value was “anticomplementary activity of human serum”.
In general, % Inhibition refers to the relative decrease from the control value, in per cent. As to `Cc1ccc(C(=O)Nc2ccc(S(=O)(=O)O)c3cc(S(=O)(=O)O)cc(S(=O)(=O)O)c23)cc1NC(=O)c1cc(NC(=O)Nc2cc(C(=O)O)cc(C(=O)Nc3cc(C(=O)Nc4ccc(S(=O)(=O)O)c5cc(S(=O)(=O)O)cc(S(=O)(=O)O)c45)ccc3C)c2)cc(C(=O)O)c1` [5,5"-Ureylenebis[2'-methyl-5"-[(4,6,8-trisulfo-1-naphthyl)carbamoyl]isophthalanilic acid], octasodium salt], the “% Inhibition” value in the assay on whole complement (30 minutes) is given as -17%; in the assay with whole complement (60 minutes), -50%; in the assay on whole complement (120 minutes), -57%. For the same molecule, the “Cl 026 (C1 inhibitor)” value on activated human C1 (Table I) is “+5 Wells”. Besides, the “C-Late 035 (C3-C9 inhibitor)” value in assay [1] (setting [4]) is on record as “+2 Wells”.
`Cc1ccc(S(=O)(=O)Nc2ccc(S(=O)(=O)[O-])c3cc(S(=O)(=O)[O-])cc(S(=O)(=O)[O-])c23)cc1NC(=O)c1cc(N)cc(C(=O)O)c1.[Na+].[Na+].[Na+]` [5-Amino-2'-methyl-5'-(4,6,8-trisulfo-1-naphthylsulfamoyl)-isophthalanilic acid, trisodium salt]: the “Cl 026 (C1 inhibitor)” value on activated human C1 (Table II (intermediates)) is on record as “+2 Wells”. In assay [1] (Table II (intermediates)), the “C-Late 035 (C3-C9 inhibitor)” value was “N”. In addition, the “Shunt Inhibition 036” value with shunt pathway is recorded as “N”.
For the molecule `Cc1ccc(C(=O)Nc2ccc(S(=O)(=O)O)c3cc(S(=O)(=O)O)cc(S(=O)(=O)O)c23)cc1NC(=O)c1ccc(N)cc1S(=O)(=O)O` [8-[3-(4-Amino-2-sulfobenzamido)-p-toluamido]-1,3,5-naphthalenetrisulfonic acid, tetrasodium salt], the “Cl 026 (C1 inhibitor)” value on activated human C1 (Table II (intermediates)) was “+2 Wells”. Moreover, in assay [1] (Table II (intermediates)), the “C-Late 035 (C3-C9 inhibitor)” value is listed as “N”. In the assay on shunt pathway, the “Shunt Inhibition 036” value is “N”.
In the case of `Cc1ccc(C(=O)Nc2ccc(S(=O)(=O)[O-])c3cc(S(=O)(=O)[O-])cc(S(=O)(=O)[O-])c23)cc1NC(=O)c1cc(NC(=O)Nc2cc(C(=O)O)cc(C(=O)Nc3cc(C(=O)Nc4ccc(S(=O)(=O)[O-])c5cc(S(=O)(=O)[O-])cc(S(=O)(=O)[O-])c45)ccc3C)c2)cc(C(=O)O)c1.[Na+].[Na+].[Na+].[Na+].[Na+].[Na+]` [5,5"-Ureylenebis[2'-methyl-5'-[(4,6,8-trisulfo-1-naphthyl)carbamoyl]isophthalanilic acid], hexasodium salt], the “Cl 026 (C1 inhibitor)” value on activated human C1 (Table I) is “+5 Wells”. For the same molecule, the “C-Late 035 (C3-C9 inhibitor)” value in assay [1] (setting [4]) is reported as “+2 Wells”.
Consider `NCCCCCC(=O)O` [epsilon-aminocaproic acid], for which the “use in treatment of hereditary angioneurotic edema” value in assay [2] is listed as “used with success in the treatment of hereditary angioneurotic edema”.
`Cc1ccc(NC(=O)c2ccc(N)cc2S(=O)(=O)O)cc1S(=O)(=O)Nc1cc(S(=O)(=O)O)cc2cc(S(=O)(=O)O)cc(S(=O)(=O)O)c12` [8-[5-(4-Amino-2-sulfobenzamido)-o-toluenesulfonamido]-1,3,6-naphthalenetrisulfonic acid, tetrasodium salt]: the “Cl 026 (C1 inhibitor)” value on activated human C1 (Table II (intermediates)) was “+4 Wells”. In addition, in assay [1] (Table II (intermediates)), the “C-Late 035 (C3-C9 inhibitor)” value is recorded as “N”. Moreover, the “Shunt Inhibition 036” value in the assay on shunt pathway is reported as “N”.
As to `Nc1ccc(C(=O)Nc2cccc(S(=O)(=O)Nc3cc(S(=O)(=O)O)cc4cc(S(=O)(=O)O)cc(S(=O)(=O)O)c34)c2)c(S(=O)(=O)O)c1` [8-[N^3-(4-Amino-2-sulfobenzoyl)metanilamido]-1,3,6-naphthalenetrisulfonic acid, tetrasodium salt], the “Cl 026 (C1 inhibitor)” value at activated human C1 (Table II (intermediates)) is on record as “+3 Wells”. The “C-Late 035 (C3-C9 inhibitor)” value in assay [1] (Table II (intermediates)) is given as “N”. For the same molecule, in the assay with shunt pathway, the “Shunt Inhibition 036” value is on record as “N”.
As to `Cc1ccc(C(=O)Nc2ccc(S(=O)(=O)O)c3cc(S(=O)(=O)O)cc(S(=O)(=O)O)c23)cc1NC(=O)c1cccc(NC(=O)Nc2cccc(C(=O)Nc3cc(C(=O)Nc4ccc(S(=O)(=O)O)c5cc(S(=O)(=O)O)cc(S(=O)(=O)O)c45)ccc3C)c2)c1` [Suramin, reference compound], on activated human C1 (Table I), the “Cl 026 (C1 inhibitor)” value was “+4 Wells”. Also, in assay [1] (setting [4]), the “C-Late 035 (C3-C9 inhibitor)” value is “+2 Wells”. In addition, the “complement inhibitor / anticomplementary effect” value in the assay with complement system is “moderately active as a complement inhibitor”.
As for `Cc1ccc(C(=O)Nc2cc(C(=O)O)cc(C(=O)Nc3ccc(S(=O)(=O)O)c4cc(S(=O)(=O)O)cc(S(=O)(=O)O)c34)c2)cc1NC(=O)Nc1cc(C(=O)Nc2cc(C(=O)O)cc(C(=O)Nc3ccc(S(=O)(=O)O)c4cc(S(=O)(=O)O)cc(S(=O)(=O)O)c34)c2)ccc1C` [5,5'-Ureylenebis[(4-methyl-3,1-phenylenecarbonyl)imino]bis[N-(4,6,8-trisulfo-1-naphthyl)isophthalamic acid], hexasodium slt], the “Cl 026 (C1 inhibitor)” value on activated human C1 (Table I) is “+5 Wells”. Also, in assay [1] (setting [4]), the “C-Late 035 (C3-C9 inhibitor)” value is recorded as “+2 Wells”.
For `Cc1ccc(C(=O)Nc2ccc(S(=O)(=O)[O-])c3cc(S(=O)(=O)[O-])cc(S(=O)(=O)[O-])c23)cc1NC(=O)c1ccc(NC(=O)Nc2ccc(C(=O)Nc3cc(C(=O)Nc4ccc(S(=O)(=O)[O-])c5cc(S(=O)(=O)[O-])cc(S(=O)(=O)[O-])c45)ccc3C)c(S(=O)(=O)[O-])c2)cc1S(=O)(=O)[O-].[Na+].[Na+].[Na+].[Na+].[Na+].[Na+].[Na+].[Na+]` [8,8'-[Ureylenebis[[(2-sulfo-4,1-phenylenecarbonyl)imino]-(4-methyl-3,1-phenylenecarbonyl)imino]]di-1,3,5-naphthalenetrisulfonic acid, octasodium salt] the same measures were “+3 Wells” and “+1 Wells”.
Turning to `Cc1cc(C)c(S(=O)(=O)Nc2cc(S(=O)(=O)[O-])cc3cc(S(=O)(=O)[O-])cc(S(=O)(=O)[O-])c23)cc1NC(=O)c1ccc(NC(=O)Nc2ccc(C(=O)Nc3cc(S(=O)(=O)Nc4cc(S(=O)(=O)[O-])cc5cc(S(=O)(=O)[O-])cc(S(=O)(=O)[O-])c45)c(C)cc3C)c(S(=O)(=O)[O-])c2)cc1S(=O)(=O)[O-].[Na+].[Na+].[Na+].[Na+].[Na+].[Na+].[Na+].[Na+]` [8,8'-[Ureylenebis[(2-sulfo-4,1-phenylenecarbonyl)imino(4,6-dimethyl-3,1-phenylenesulfonyl)imino]]di-1,3,6-naphthalenetrisulfonic acid, octasodium salt], the “Cl 026 (C1 inhibitor)” value on activated human C1 (Table I) is listed as “+5 Wells”. Also, the “C-Late 035 (C3-C9 inhibitor)” value in assay [1] (setting [4]) was “+2 Wells”.
heparin: in the assay with complement system, the “complement inhibitor / anticomplementary effect” value was “anticomplementary effect”.
